From US20030013660A1, “Dioxolane analogs for improved inter-cellular delivery” (Shire BioChem Inc., priority 2000, published 2003)
pIC50: −log10 of the molar value. “And” between values parts separate entries of the source, which are not always exact repeats. Equal values may be shown once.

What was measured:
[1] = tested on: SF-268; test: 3H-TdR incorporation at 72 hr (24 hr drug exposure, wash, 48 hr); assay type: cell-based, Human; conditions: Homo sapiens, SF-268, read-out: IC50 in μM (3H-TdR incorporation at 72 hr) SF-268 24 h, SF-268 Human Central Nervous System Tumor; 24 h drug exposure, 72 hr assay
Description: (§1) Exposition of 24 hr to drug, wash, incubated for another 48 hr (total of 72 hr assay)
(§2) (3H-Thymidine Incorporation Assay)

[2] = tested on: CCRF-CEM; test: as above; assay type: cell-based; conditions: read-out: IC50 in μM (3H-TdR incorporation at 72 hr) CCRF-CEM 24 h, CCRF-CEM T-cell Leukemia, 72 hr assay
Description: as §1, §2

[3] = tested on: CEM/dCK-; test: as above; assay type: cell-based; conditions: for IC50: Homo sapiens, CCRF-CEM, read-out: IC50 in μM (3H-TdR incorporation at 72 hr) CEM/dCK- 24 h, CCRF-CEM deoxycytidine kinase-deficient, 24 h drug exposure, 72 hr assay; for Factor* (Resistance Factor = Ratio of dCK- on Wild-type CCRF-CEM): ratio of IC50 CEM/dCK- to IC50 CCRF-CEM
Description: as §1, §2

[4] = tested on: H-460; test: as above; assay type: cell-based, Human
Description: as §1, §2

[5] = tested on: MCF-7; test: as above; assay type: cell-based, Human
Description: as §1, §2

[6] = tested on: H-460; test: 3H-TdR (3H-thymidine) incorporation assay at 72 hr; assay type: cell-based, Human; conditions: Homo sapiens, 3H-TdR incorporation at 72 hr
[7] = tested on: MCF-7; test: 3H-TdR (3H-thymidine) incorporation assay at 72 hr; assay type: cell-based, Human; conditions: Homo sapiens, 3H-TdR incorporation at 72 hr
[8] = tested on: SF-268; test: 3H-TdR (3H-thymidine) incorporation assay at 72 hr; assay type: cell-based, Human; conditions: Homo sapiens, 3H-TdR incorporation at 72 hr
[9] = tested on: CCRF-CEM; test: 3H-TdR (3H-thymidine) incorporation assay at 72 hr; assay type: cell-based; conditions: Homo sapiens, CCRF-CEM, read-out: IC50 CCRF-CEM 24 h, 24 h drug exposure, wash, another 48 hr; 3H-TdR incorporation at 72 hr
Description: (§3) Table of IC50 Values (μM) for Controls
as §1, §2

[10] = tested on: CEM/dCK-; test: 3H-TdR (3H-thymidine) incorporation assay at 72 hr; assay type: cell-based; conditions: for pIC50: deoxycytidine kinase-deficient CCRF-CEM; for Factor* (Resistance Factor = Ratio of dCK- on Wild-type CCRF-CEM): ratio of IC50 CEM/dCK- to CCRF-CEM, 24 h
Description: as §3, §1, §2

[11] = Homo sapiens, NCI-H460, read-out: IC50 in μM (3H-TdR incorporation at 72 hr) H-460 24 h, H-460 Human Lung Carcinoma, 72 hr assay
[12] = read-out: IC50 in μM (3H-TdR incorporation at 72 hr) H-460 24 h, H-460 Human Lung Carcinoma, 72 hr assay
[13] = Homo sapiens, MCF7, read-out: IC50 in μM (3H-TdR incorporation at 72 hr) MCF-7 24 h, MCF-7 Human Breast Carcinoma, 72 hr assay
[14] = read-out: IC50 in μM (3H-TdR incorporation at 72 hr) MCF-7 24 h, MCF-7 Human Breast Carcinoma, 72 hr assay
[15] = NCI-H460, read-out: IC50 H-460 (72 h), 72 h exposure
[16] = MCF7, read-out: IC50 MCF-7 (72 h), 72 h exposure
[17] = SF-268, read-out: IC50 SF-268 (72 h), 72 h exposure
[18] = Homo sapiens, CCRF-CEM, read-out: IC50 CEM/dCK- 24 h, 24 h drug exposure, wash, another 48 hr
[19] = NCI-H460, read-out: IC50 H-460 24 h, 24 h drug exposure, wash, another 48 hr
[20] = MCF7, read-out: IC50 MCF-7 24 h, 24 h drug exposure, wash, another 48 hr
[21] = SF-268, read-out: IC50 SF-268 24 h, 24 h drug exposure, wash, another 48 hr

`O=C(Nc1ccn([C@@H]2CO[C@H](CO)O2)c(=O)n1)C12C[C@@H]3C[C@@H](C[C@@H]1C3)C2` (stereo in doubt) [Compound 231, Hexahydro-2,5-Methano-Pentalene-3A-Carboxylic Acid [1-(2-Hydroxymethyl-[1,3]Dioxolan-4-Yl)-2-Oxo-1,2-Dihydro-Pyrimidin-4-Yl]-Amide] was tested, and the IC50 [1] was 1.1 µM, the IC50 ([2]; Homo sapiens, CCRF-CEM) was 0.076 µM and the IC50 [3] was over 100 µM.
`O=c1nc(NS(=O)(=O)c2ccc([N+](=O)[O-])cc2)ccn1[C@@H]1CO[C@H](CO)O1` [Compound 168, N-[1-(2-HYDROXYMETHYL- [1,3]DIOXOLAN-4-YL)-2- OXO-1,2-DIHYDRO- PYRIMIDIN-4-YL]-4- NITRO- BENZENESULFONAMIDE] was tested, and the IC50 ([2]; Homo sapiens, CCRF-CEM) was 31 µM, the IC50 [2] was 22 µM and 20 µM and the IC50 [3] was over 100 µM.
With `O=c1nc(NCNc2ccccc2)ccn1[C@@H]1CO[C@H](CO)O1` [Compound 172, 1-(2-HYDROXYMETHYL- [1,3]DIOXOLAN-4-YL)-4- (PHENYLAMINOMETHYL- AMINO)-1H-PYRIMIDIN-2- ONE] the IC50 [4, 11] was 0.014 µM, the IC50 [4, 12] was 0.015 µM and the IC50 [5, 13] was 0.019 µM. The IC50 [5, 14] was 0.036 µM, the IC50 ([2]; Homo sapiens, CCRF-CEM) was 0.0074 µM and the IC50 [2] was 0.0085 µM.
For `Nc1ccn([C@@H]2CO[C@H](COC(=O)c3ccc(Cl)c(Cl)c3)O2)c(=O)n1` [Compound 187, 3,4-DICHLORO-BENZOIC ACID 4-(4-AMINO-2-OXO- 2H-PYRIMIDIN-1-YL)- [1,3]DIOXOLAN-2-YL METHYL ESTER], the IC50 [4, 12] was 0.0014 µM, the IC50 [5, 14] was 0.0042 µM and the IC50 [2] was 0.0017 µM.
In the case of `Nc1ccn([C@@H]2CO[C@H](COC(=O)c3ccc(C(F)(F)F)cc3)O2)c(=O)n1` [Compound 189, 4-TRIFLUOROMETHYL- BENZOIC ACID 4-(4- AMINO-2-OXO-2H- PYRIMIDIN-1-YL)- [1,3]DIOXOLAN-2-YL METHYL ESTER], the IC50 [4, 12] was 0.0012 µM and the “Factor* (Resistance Factor = Ratio of dCK- on Wild-type CCRF-CEM)” value [3] was 1333 and 1300.
Compound `CC(=O)Oc1ccc(COC(=O)Nc2ccn([C@@H]3CO[C@H](CO)O3)c(=O)n2)cc1` [Compound 203, ACETIC ACID 4-[1-(2- HYDROXYMETHYL- [1,3]DIOXOLAN-4-YL)-2- OXO-1,2-DIHYDRO- PYRIMIDIN-4- YLCARBAMOYLOXYMETHYL]- PHENYL ESTER] has an IC50 [4, 11] of under 0.0001 µM, an IC50 [5, 13] of under 0.0001 µM and an IC50 [1] of under 0.0001 µM.
`Nc1ccn([C@@H]2CO[C@H](COC(=O)c3ccc([N+](=O)[O-])cc3)O2)c(=O)n1` [Compound 204, 4-NITRO-BENZOIC ACID 4- (4-AMINO-2-OXO-2H- PYRIMIDIN-1-YL)- [1,3]DIOXOLAN-2-YL METHYL ESTER] was tested, and the IC50 [4, 12] was 0.015 µM and the “Factor* (Resistance Factor = Ratio of dCK- on Wild-type CCRF-CEM)” value [3] was 1600.
With `Nc1ccn([C@@H]2CO[C@H](COC(=O)c3ccccc3-c3ccccc3)O2)c(=O)n1` [Compound 209, BIPHENYL-2-CARBOXYLIC ACID 4-(4-AMINO-2-OXO- 2#H!-PYRIMIDIN-1-YL)- [1,3]DIOXOLAN-2-YL METHYL ESTER] the IC50 [4, 11] was 0.31 µM, the IC50 [5, 13] was 1.3 µM and the IC50 [1] was 0.59 µM. It also gave an IC50 [3] of over 100 µM.
`CC(C)(C)C(=O)Oc1ccc(COC(=O)Nc2ccn([C@@H]3CO[C@H](COC(=O)OCc4ccc(OC(=O)C(C)(C)C)cc4)O3)c(=O)n2)cc1` [Compound 212, 2,2-Dimethylpropionic Acid 4-(1-{2-[4-(2,2-dimethylpropionyloxy)benzyloxy Carbonyloxymethyl]-[1,3]dioxolan-4-yl}-2-oxo-1,2-dihydropyrimidin-4-ylcarbamoyloxymethyl)-phenyl Ester] gave an IC50 [4, 11] of 0.00011 µM, an IC50 [5, 13] of 0.00059 µM and an IC50 [1] of 0.018 µM. For the same compound, the IC50 [3] was 3.5 µM.
`CC(C)(C)C(=O)Oc1ccc(COC(=O)Nc2ccn([C@@H]3CO[C@H](CO)O3)c(=O)n2)cc1` [Compound 213, 2,2-DIMETHYL-PROPIONIC ACID 4-[1-(2- HYDROXYMETHYL- [1,3]DIOXOLAN-4-YL)-2- OXO-1,2-DIHYDRO- PYRIMIDIN-4- YLCARBAMOYLOXYMETHYL]- PHENYL ESTER] gave an IC50 [4, 11] of at most 0.0001 µM, an IC50 [5, 13] of 0.00027 µM and an IC50 [1] of 0.012 µM. For the same compound, the IC50 [3] was 1.1 µM.
With `CC(C)(C)OC(=O)N(CCCCCCNC(=O)OC[C@H]1OC[C@@H](n2ccc(N)nc2=O)O1)Cc1ccccc1` [Compound 214, {6-[4-(4-AMINO-2-OXO- 2H-PYRIMIDIN-1-YL)- [1,3]DIOXOLAN-2- YLMETHOXYCARBONYLAMINO]-HEXYL}-BENZYL-CARBAMIC ACID TERT-BUTYL ESTER] the IC50 [4, 11] was 9.4 µM, the IC50 [5, 13] was 9.4 µM and the IC50 [1] was 89 µM. It also gave an IC50 [3] of over 100 µM.
For `Nc1ccn([C@@H]2CO[C@H](COC(=O)NCCCc3ccccc3)O2)c(=O)n1` [Compound 215, (3-PHENYL-PROPYL)- CARBAMIC ACID 4-(4- AMINO-2-OXO-2H- PYRIMIDIN-1-YL)- [1,3]DIOXOLAN-2-YL METHYL ESTER], the IC50 [4, 11] was 3.9 µM, the IC50 [5, 13] was 33 µM and the IC50 [1] was 96 µM. For the same compound, the IC50 [3] was over 100 µM.
Work on `CCCCC(CC)(CC)C(=O)OC[C@H]1OC[C@@H](n2ccc(N)nc2=O)O1` [Compound 218, 2,2-DIETHYL-HEXANOIC ACID 4-(4-AMINO-2-OXO- 2H-PYRIMIDIN-1-YL)- [1,3]DIOXOLAN-2-YL METHYL ESTER] yielded an IC50 [4, 11] of 0.0091 µM, an IC50 [5, 13] of 0.052 µM and an IC50 [1] of 0.081 µM. It also gave an IC50 [3] of 60 µM.
`O=C(Nc1ccn([C@@H]2CO[C@H](CO)O2)c(=O)n1)C1(c2ccccc2)CCCC1` [Compound 229, 1-PHENYL- CYCLOPENTANECARBOXYLIC ACID [1-(2- HYDROXYMETHYL- [1,3]DIOXOLAN-4-YL)-2- OXO-1,2-DIHYDRO- PYRIMIDIN-4-YL]-AMIDE] gave an IC50 [4, 11] of 13 µM, an IC50 [4, 12] of 14 µM and an IC50 [5, 13] of 15 µM. For the same compound, the IC50 [5, 14] was 18 µM, the IC50 ([2]; Homo sapiens, CCRF-CEM) was 11 µM and the IC50 [3] was over 100 µM. The “Factor* (Resistance Factor = Ratio of dCK- on Wild-type CCRF-CEM)” value [3] was over 9.
`CC(C)C(=O)OC[C@H]1OC[C@@H](n2ccc(N)nc2=O)O1` [Compound 275, ISOBUTYRIC ACID 4-(4- AMINO-2-OXO-2H- PYRIMIDIN-1-YL)- [1,3]DIOXOLAN-2-YL METHYL ESTER] gave a pIC50 [6, 15] of 8.92, a pIC50 [7, 16] of 8.36 and a pIC50 [8, 17] of 7.89. For the same compound, the pIC50 [9] was 8.25, the pIC50 [10, 18] was 4.29 and the “Factor* (Resistance Factor = Ratio of dCK- on Wild-type CCRF-CEM)” value [10] was 9,214.
Compound `CC(C)CC(=O)OC[C@H]1OC[C@@H](n2ccc(N)nc2=O)O1` [Compound 278, 3-METHYL-BUTYRIC ACID 4-(4-AMINO-2-OXO-2H- PYRIMIDIN-1-YL)- [1,3]DIOXOLAN-2-YL METHYL ESTER] has a pIC50 [6, 19] of 7.10, a pIC50 [6, 15] of 8.62 and a pIC50 [7, 20] of 7.42. It also gave a pIC50 [7, 16] of 7.64, a pIC50 [8, 21] of 7.03 and a pIC50 [8, 17] of 7.89. It also gave a pIC50 [9] of 7.55, a pIC50 [10, 18] of 4.15 and a pIC50 ([10]; read-out: IC50 CEM/dCK- 24 h, 24 h drug exposure, wash, another 48 hr) of 4.04.
In the case of `CC(C)[C@H](N)C(=O)Nc1ccn([C@@H]2CO[C@H](CO)O2)c(=O)n1.O=C(O)C(F)(F)F` [Compound 280, 2-Amino-N-[1-(2-hydoxymethyl-[1,3]dioxolan-4-yl)-2-oxo-1,2-dihydro-pyrimidin-4-yl]-3-methyl-butyramide; trifluoroacetic acid salt], the pIC50 [6, 19] was 5.72, the pIC50 [7, 20] was 5.51 and the pIC50 [8, 21] was 4.74. The pIC50 [9] was 5.72, the pIC50 [10, 18] was under 4.00 and the “Factor* (Resistance Factor = Ratio of dCK- on Wild-type CCRF-CEM)” value [10] was over 53.
